36 molecules from ChEMBL document CHEMBL4483862, “Open-source discovery of chemical leads for next-generation chemoprotective antimalarials” (2018) can be followed below.

Bounds are passed on as bounds.

The assay concerns Plasmodium berghei. As to the kind of experiment: Luciferase/luciferin-expressing antifolate-resistant parasites were used to infect a culture of HepG2 cells that were pre-incubated with compounds. Infected hepatocytes emit light due to the luciferase reaction. Assay results are presented as the percent inhibition of light emission compared to control. […]. Format: functional. To be noted: sporozoite; for IC90: read-out: LUCIFERASE INFECTION ASSAY - IC90.

With `Cc1cccc(-c2nc3c(NCc4ccccc4)nccc3[nH]2)c1`, the IC90 turned out to be 9.18 µM. Where the note is “PBLUC_HILL_SLOPE 2.29, PBLUC_R_SQUARED 0.394, read-out: LUCIFERASE INFECTION ASSAY - IC50”, the IC50 was 3.51 µM.
On to `CC(C)(C)c1ccc(C(=O)NC(=S)Nc2nc3c(s2)CCCC3)cc1`, for which the concentration for an effect of 90% (IC90) was found to be 8.77 µM. Moreover, the IC50 (PBLUC_HILL_SLOPE 2.3, PBLUC_R_SQUARED 0.829, read-out: LUCIFERASE INFECTION ASSAY - IC50) was 3.37 µM.
Turning to `O=C(O)c1cnc2cc3c(cc2c1O)OCCO3`, the IC90 was > 10 µM. Where the note is “PBLUC_HILL_SLOPE 2.36, 2.10, PBLUC_R_SQUARED 0.249, 0.136, read-out: LUCIFERASE INFECTION ASSAY - IC50”, the IC50 was determined as 7.92 µM.
Take `O=C(Nc1ccccn1)c1ccc(Cl)c(S(=O)(=O)N(Cc2ccccc2)c2ccccc2)c1`: the concentration for an effect of 90% (IC90) is > 10 µM. Further, the IC50 (PBLUC_HILL_SLOPE 2.32, PBLUC_R_SQUARED 0.355, read-out: LUCIFERASE INFECTION ASSAY - IC50) stood at 5.62 µM.
Regarding `O=C(CCn1c(-c2ccc(F)cc2)n[nH]c1=S)Nc1nc2c(s1)CCCC2`, the IC90 was > 10 µM. In addition, the half-inhibitory concentration (IC50) (PBLUC_HILL_SLOPE 2.35, PBLUC_R_SQUARED 0.213, read-out: LUCIFERASE INFECTION ASSAY - IC50) is 4.33 µM.
Take `Cc1cc(C(=O)CN2C(=O)NC3(CCCc4sccc43)C2=O)c(C)n1Cc1ccc2c(c1)OCO2` (configuration not stated): the IC90 was > 10 µM. Further, the IC50 (PBLUC_HILL_SLOPE 2.26, PBLUC_R_SQUARED 0.443, read-out: LUCIFERASE INFECTION ASSAY - IC50) was 8.17 µM.
As for `O=C(Nc1ncccc1O)c1ccc(Cn2cccn2)cc1`, the concentration for an effect of 90% (IC90) is 3.1 µM. Further, the IC50 (PBLUC_HILL_SLOPE 2.35, PBLUC_R_SQUARED 0.554, read-out: LUCIFERASE INFECTION ASSAY - IC50) was found to be 1.22 µM.
For the molecule `COc1ccc(C2=NOC(C(N)=O)C2)cc1OC` (configuration not stated), the concentration for an effect of 90% (IC90) amounted to 9.25 µM. In addition, where the note is “PBLUC_HILL_SLOPE 2.3, PBLUC_R_SQUARED 0.443, read-out: LUCIFERASE INFECTION ASSAY - IC50”, the concentration for half-maximal inhibition (IC50) was found to be 3.55 µM.
For `OC(c1ccc(F)c(Cl)c1)c1nnc(Nc2cccc(OC(F)(F)F)c2)s1` (configuration not stated), the IC90 was > 10 µM. The half-inhibitory concentration (IC50) (PBLUC_HILL_SLOPE 2.34, PBLUC_R_SQUARED 0.225, read-out: LUCIFERASE INFECTION ASSAY - IC50) came to 9.05 µM.
On to `Cc1ccc(NNC(=O)c2cc3ccccc3o2)cc1Cl`, for which the IC90 was > 10 µM. For the same molecule, where the note is “PBLUC_HILL_SLOPE 2.35, PBLUC_R_SQUARED 0.383, read-out: LUCIFERASE INFECTION ASSAY - IC50”, the IC50 is 6.24 µM.
Regarding `COc1ccccc1-n1c(C)c(C)c2c1ncn1nc(-c3ccncc3)nc21`, the IC90 is > 8.91 µM. Where the note is “PBLUC_HILL_SLOPE 2.29, PBLUC_R_SQUARED 0.762, read-out: LUCIFERASE INFECTION ASSAY - IC50”, the concentration for half-maximal inhibition (IC50) was > 8.91 µM.
Take `Cc1cc2ccccn2c1C(=O)c1cccc2nc3ccccc3nc12`: the IC90 is > 10 µM. In addition, the IC50 (PBLUC_HILL_SLOPE 2.29, PBLUC_R_SQUARED 0.419, read-out: LUCIFERASE INFECTION ASSAY - IC50) was 7.29 µM.
With `CCOC(=O)c1sc2ncn(-n3c(C)ccc3C)c(=O)c2c1C`, the IC90 came out at 7.62 µM. Also, the concentration for half-maximal inhibition (IC50) (PBLUC_HILL_SLOPE 2.28, PBLUC_R_SQUARED 0.71, read-out: LUCIFERASE INFECTION ASSAY - IC50) is 2.9 µM.
On to `Cc1ccccc1-c1cnc2cnc(-c3ccc(N4CCN(C)CC4)nc3)cn12`, for which the concentration for an effect of 90% (IC90) is > 8.58 µM. Also, the concentration for half-maximal inhibition (IC50) (PBLUC_HILL_SLOPE 2.3, PBLUC_R_SQUARED 0.345, read-out: LUCIFERASE INFECTION ASSAY - IC50) was > 8.58 µM.
As for `COc1cccc(Nc2nccc3nc(-c4cccc(C(F)(F)F)c4)[nH]c23)c1`, the IC90 is > 10 µM. Moreover, the IC50 (PBLUC_HILL_SLOPE 2.33, PBLUC_R_SQUARED 0.497, read-out: LUCIFERASE INFECTION ASSAY - IC50) came to 4.16 µM.
As to `Cc1cc(C)c(NC(=NCc2ccc(Cl)cc2)Nc2c(C)cc(C)cc2C)c(C)c1`, the 90% effect concentration (IC90) was > 10 µM. Moreover, under “PBLUC_HILL_SLOPE 2.28, PBLUC_R_SQUARED 0.76, read-out: LUCIFERASE INFECTION ASSAY - IC50”, the concentration for half-maximal inhibition (IC50) amounted to 5.92 µM.
For `C=CCOC(=O)C1=C(C)N(c2ccc3c(c2)OCCO3)C(=S)NC1c1ccc(F)cc1F` (configuration not stated), the concentration for an effect of 90% (IC90) was > 10 µM. The half-inhibitory concentration (IC50) (PBLUC_HILL_SLOPE 2.28, PBLUC_R_SQUARED 0.442, read-out: LUCIFERASE INFECTION ASSAY - IC50) came out at 5.73 µM.
For `CCCCN1C(=O)/C(=C\c2ccc(O)c(OCC)c2)NC1=S`, the IC90 is > 10 µM. For the same molecule, the half-maximal inhibitory concentration (IC50) (PBLUC_HILL_SLOPE 2.35, PBLUC_R_SQUARED 0.305, read-out: LUCIFERASE INFECTION ASSAY - IC50) came to 6.33 µM.
As to `O=C(Nc1cccc(NC(=O)c2ccccc2Nc2ccccc2)c1)c1ccco1`, the IC90 is > 10 µM. For the same molecule, the 50% inhibitory concentration (IC50) (PBLUC_HILL_SLOPE 2.3, PBLUC_R_SQUARED 0.121, read-out: LUCIFERASE INFECTION ASSAY - IC50) amounted to 5.43 µM.
With `CN(C)c1ccc(-c2cnn3c(Nc4ccc(Oc5ccccc5)cc4)ccnc23)cc1`, the 90% effect concentration (IC90) was > 7.83 µM. Besides, for the setting “PBLUC_HILL_SLOPE 2.36, PBLUC_R_SQUARED 0.164, read-out: LUCIFERASE INFECTION ASSAY - IC50”, the IC50 is 6.65 µM.
With `OC(c1cccc(C(F)(F)F)c1)c1nnc(Nc2ccccc2)s1` (configuration not stated), the 90% effect concentration (IC90) is > 10 µM. The IC50 (PBLUC_HILL_SLOPE 2.28, PBLUC_R_SQUARED 0.325, read-out: LUCIFERASE INFECTION ASSAY - IC50) is 7.1 µM.
With `CCN(CC)S(=O)(=O)N1CCN(C(=O)c2[nH]nc3ccccc23)CC1`, the IC90 was 3.63 µM. Besides, where the note is “PBLUC_HILL_SLOPE 2.28, PBLUC_R_SQUARED 0.575, read-out: LUCIFERASE INFECTION ASSAY - IC50”, the IC50 stood at 1.39 µM.
As for `Clc1nc(NCc2ccc3c(c2)OCO3)c2[nH]cnc2n1`, the IC90 was > 10.9 µM. Under “PBLUC_HILL_SLOPE 2.33, PBLUC_R_SQUARED 0.359, read-out: LUCIFERASE INFECTION ASSAY - IC50”, the IC50 was 9.8 µM.
As for `Cc1ccc(Nc2ccnc(Nc3ccc(C)cc3)n2)cc1`, the concentration for an effect of 90% (IC90) is > 10 µM. The IC50 (PBLUC_HILL_SLOPE 2.32, 3.33, PBLUC_R_SQUARED 0.458, 0.517, read-out: LUCIFERASE INFECTION ASSAY - IC50) came out at 4.86 µM.
`O=C(Nc1ccc([N+](=O)[O-])cc1)Nc1cccnc1Cl`: the IC90 is 2.05 µM. For the same molecule, the half-maximal inhibitory concentration (IC50) (PBLUC_HILL_SLOPE 2.35, PBLUC_R_SQUARED 0.752, read-out: LUCIFERASE INFECTION ASSAY - IC50) amounted to 0.807 µM.
With `CN(C)c1ccc(CNCC2(c3ccnc(-c4ccc(Cl)cc4)c3)CC2)cc1`, the IC90 is > 10 µM. Further, for the setting “PBLUC_HILL_SLOPE 2.32, PBLUC_R_SQUARED 0.214, read-out: LUCIFERASE INFECTION ASSAY - IC50”, the IC50 turned out to be 6.36 µM.
As to `CCNC(=O)c1cc(Cl)c(OCc2ccccc2)c(OC)c1`, the 90% effect concentration (IC90) is > 10.3 µM. Further, the IC50 (PBLUC_HILL_SLOPE 2.26, PBLUC_R_SQUARED 0.647, read-out: LUCIFERASE INFECTION ASSAY - IC50) came to 5.81 µM.
Consider `FC(F)(F)Oc1cccc(-c2cnc3sc(NCCN4CCOCC4)nn23)c1`, for which the IC90 was > 7.98 µM. Besides, for the setting “PBLUC_HILL_SLOPE 2.27, PBLUC_R_SQUARED 0.551, read-out: LUCIFERASE INFECTION ASSAY - IC50”, the IC50 was found to be 5.39 µM.
`CC1(c2ccccc2)NC(=O)N(NC(=O)c2ccc(-c3ccccc3)cc2)C1=O` (configuration not stated): the IC90 is > 10 µM. For the same molecule, the 50% inhibitory concentration (IC50) (PBLUC_HILL_SLOPE 2.29, PBLUC_R_SQUARED 0.368, read-out: LUCIFERASE INFECTION ASSAY - IC50) was found to be 6.98 µM.
Regarding `O=C(NCc1ccccn1)c1nn(CCc2ccccc2)c2c1CN(Cc1cccc3c1OCO3)CC2`, the 90% effect concentration (IC90) was > 6.66 µM. For the same molecule, for the setting “PBLUC_HILL_SLOPE 2.34, PBLUC_R_SQUARED 0.543, read-out: LUCIFERASE INFECTION ASSAY - IC50”, the IC50 stood at 5.68 µM.
Take `Cc1cc(C(=O)COC(=O)c2ccc3[nH]c4c(c3c2)CCCC4)c(C)n1Cc1ccccc1Cl`: the concentration for an effect of 90% (IC90) is 4.61 µM. The concentration for half-maximal inhibition (IC50) (PBLUC_HILL_SLOPE 2.26, PBLUC_R_SQUARED 0.534, read-out: LUCIFERASE INFECTION ASSAY - IC50) was determined as 1.74 µM.
As for `CC(C)c1nc2cc(NC(=O)CSc3nnnn3C3CC3)ccc2o1`, the 90% effect concentration (IC90) is > 10 µM. Moreover, the IC50 (PBLUC_HILL_SLOPE 2.34, PBLUC_R_SQUARED 0.391, read-out: LUCIFERASE INFECTION ASSAY - IC50) turned out to be 3.99 µM.
As for `O=C(CN1CCN(Cc2cc(=O)oc3cc4c(cc23)CCC4)CC1)Nc1ccc(Cl)c(C(F)(F)F)c1`, the IC90 was > 10 µM. The half-maximal inhibitory concentration (IC50) (PBLUC_HILL_SLOPE 2.35, PBLUC_R_SQUARED 0.537, read-out: LUCIFERASE INFECTION ASSAY - IC50) was 5.82 µM.
In the case of `CC1CCN(C(CNC(=O)N2CCc3sccc3C2)c2cccs2)CC1` (configuration not stated), the concentration for an effect of 90% (IC90) was 9.12 µM. For the same molecule, for the setting “PBLUC_HILL_SLOPE 2.26, PBLUC_R_SQUARED 0.56, read-out: LUCIFERASE INFECTION ASSAY - IC50”, the IC50 is 3.45 µM.
Take `Cc1ccc(Oc2ccc(NC(=O)c3cc(C)on3)cc2)cc1`: the IC90 stood at 4.67 µM. The half-inhibitory concentration (IC50) (PBLUC_HILL_SLOPE 2.32, PBLUC_R_SQUARED 0.861, read-out: LUCIFERASE INFECTION ASSAY - IC50) turned out to be 1.81 µM.
As for `Cc1cc(-n2c(C)cc(/C=C3\S/C(=N\C4CCCC4)NC3=O)c2C)no1`, the 90% effect concentration (IC90) was > 10 µM. For the same molecule, the IC50 (PBLUC_HILL_SLOPE 2.3, PBLUC_R_SQUARED 0.376, read-out: LUCIFERASE INFECTION ASSAY - IC50) amounted to 5.21 µM.
